Measured values from patent publication US11608335B2, “Somatostatin modulators and uses thereof” (CRINETICS PHARMACEUTICALS, INC., priority 2018, dated 2023).

Biological target: human somatostatin receptor subtype 5 (Homo sapiens, UniProt P35346)
Test: cAMP assay for SST5R (inhibition of cAMP via human SST5 receptor)

human somatostatin receptor subtype 5, sequence (P35346 whole entry): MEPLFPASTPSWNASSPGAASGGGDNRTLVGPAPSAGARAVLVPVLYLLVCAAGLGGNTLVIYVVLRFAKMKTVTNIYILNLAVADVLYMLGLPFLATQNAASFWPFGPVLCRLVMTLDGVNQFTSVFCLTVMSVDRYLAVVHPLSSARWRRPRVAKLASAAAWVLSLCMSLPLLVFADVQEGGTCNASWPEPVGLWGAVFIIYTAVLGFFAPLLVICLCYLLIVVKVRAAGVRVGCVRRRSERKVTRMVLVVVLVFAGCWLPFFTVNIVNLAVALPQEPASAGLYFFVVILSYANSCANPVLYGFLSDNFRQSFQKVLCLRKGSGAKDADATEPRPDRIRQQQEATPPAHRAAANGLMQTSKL

Row | SMILES | EC50 [nM]
1 | N[C@H]1CCN(c2c(-c3cc(O)cc(F)c3)cncc2-c2nc3cccc(F)c3[nH]2)C1 [Compound 2-25, 3-{4-[(3S)-3-aminopyrrolidin-1-yl]-5-(4-fluoro-1H-1,3-benzodiazol-2-yl)pyridin-3-yl}-5-fluorophenol] | 10 to 100
2 | CC1(N)CCN(c2c(-c3ccc4[nH]ccc4c3)cncc2-c2nc3cccc(F)c3[nH]2)C1 (stereo not drawn) [Compound 2-30, 1-[3-(4-fluoro-1H-1,3-benzodiazol-2-yl)-5-(1H-indol-5-yl)pyridin-4-yl]-3-methylpyrrolidin-3-amine] | 100 to 1000
3 | N#Cc1c(F)ccc(-c2cncc(-c3nc4cccc(F)c4[nH]3)c2N2CC[C@H](N)C2)c1F [Compound 2-32, 3-{4-[(3S)-3-aminopyrrolidin-1-yl]-5-(4-fluoro-1H-1,3-benzodiazol-2-yl)pyridin-3-yl}-2,6-difluorobenzonitrile] | < 10
4 | N#Cc1ccc(-c2cncc(-c3nc4c(F)cccc4[nH]3)c2N2CC[C@H](N)C2)cc1F [Compound 2-35, 4-{4-[(3S)-3-aminopyrrolidin-1-yl]-5-(4-fluoro-1H-1,3-benzodiazol-2-yl)pyridin-3-yl}-2-fluorobenzonitrile] | 10 to 100
5 | N#Cc1c(F)cccc1-c1cncc(-c2nc3c(F)ccc(F)c3[nH]2)c1N1CC[C@H](N)C1 [Compound 2-40, 2-{4-[(3S)-3-aminopyrrolidin-1-yl]-5-(4,7-difluoro-1H-1,3-benzodiazol-2-yl)pyridin-3-yl}-6-fluorobenzonitrile] | 10 to 100
6 | N#Cc1cccc(-c2cncc(-c3nc4c(F)c(F)c(F)c(F)c4[nH]3)c2N2CC[C@H](N)C2)c1 [Compound 2-41, 3-{4-[(3S)-3-aminopyrrolidin-1-yl]-5-(4,5,6,7-tetrafluoro-1H-1,3-benzodiazol-2-yl)pyridin-3-yl}benzonitrile] | 10 to 100
7 | N#Cc1ccc(-c2cncc(-c3nc4cccc(F)c4[nH]3)c2N2CC[C@H](N)C2)cc1 [Compound 2-42, 4-{4-[(3S)-3-aminopyrrolidin-1-yl]-5-(4-fluoro-1H-1,3-benzodiazol-2-yl)pyridin-3-yl}benzonitrile] | 100 to 1000
8 | CC1(N)CCN(c2c(-c3cccc(-n4ccnc4)c3)cncc2-c2nc3cccc(F)c3[nH]2)C1 (stereo not drawn) [Compound 2-53, 1-[3-(4-fluoro-1H-1,3-benzodiazol-2-yl)-5-[3-(1H-imidazol-1-yl)phenyl]pyridin-4-yl]-3-methylpyrrolidin-3-amine] | 10 to 100
9 | N[C@H]1CCN(c2c(-c3ccc4c(c3)OCC4)cncc2-c2nc3cccc(F)c3[nH]2)C1 [Compound 2-59, (3S)-1-[3-(2,3-dihydro-1-benzofuran-6-yl)-5-(4-fluoro-1H-1,3-benzodiazol-2-yl)pyridin-4-yl]pyrrolidin-3-amine] | 10 to 100
10 | NC(=O)c1cccc(-c2cncc(-c3nc4cccc(F)c4[nH]3)c2N2CCC(N)(C(F)(F)F)C2)c1 (stereo not drawn) [Compound 2-64, 3-{4-[3-amino-3-(trifluoromethyl)pyrrolidin-1-yl]-5-(4-fluoro-1H-1,3-benzodiazol-2-yl)pyridin-3-yl}benzamide] | > 1000
11 | NC(=O)c1cc(-c2cncc(-c3nc4cccc(F)c4[nH]3)c2N2CC[C@H](N)C2)ccc1F [Compound 2-71, 5-{4-[(3S)-3-aminopyrrolidin-1-yl]-5-(4-fluoro-1H-1,3-benzodiazol-2-yl)pyridin-3-yl}-2-fluorobenzamide] | 10 to 100
12 | NC(=O)c1cc(F)cc(-c2cncc(-c3nc4cccc(F)c4[nH]3)c2N2CC[C@H](N)C2)c1 [Compound 2-72, 3-{4-[(3S)-3-aminopyrrolidin-1-yl]-5-(4-fluoro-1H-1,3-benzodiazol-2-yl)pyridin-3-yl}-5-fluorobenzamide] | < 10
13 | COc1ccc(-c2cncc(-c3nc4cccc(F)c4[nH]3)c2N2CC[C@H](N)C2)cc1C(N)=O [Compound 2-73, 5-{4-[(3S)-3-aminopyrrolidin-1-yl]-5-(4-fluoro-1H-1,3-benzodiazol-2-yl)pyridin-3-yl}-2-methoxybenzamide] | > 1000
14 | Cn1c(-c2cncc(-c3cccc(C#N)c3)c2N2CC[C@H](N)C2)nc2c(Cl)cccc21 [Compound 2-75, 3-{4-[(3S)-3-aminopyrrolidin-1-yl]-5-(4-chloro-1-methyl-1H-1,3-benzodiazol-2-yl)pyridin-3-yl}benzonitrile] | < 10
15 | N#Cc1cccc(-c2cncc(-c3nc4c(C(=O)O)cccc4[nH]3)c2N2CC[C@H](N)C2)c1 [Compound 2-82, 2-{4-[(3S)-3-aminopyrrolidin-1-yl]-5-(3-cyanophenyl)pyridin-3-yl}-1H-1,3-benzodiazole-4-carboxylic acid] | > 1000
16 | N#Cc1cccc(-c2cncc(-c3nc4c(C(N)=O)cccc4[nH]3)c2N2CC[C@H](N)C2)c1 [Compound 2-83, 2-{4-[(3S)-3-aminopyrrolidin-1-yl]-5-(3-cyanophenyl)pyridin-3-yl}-1H-1,3-benzodiazole-4-carboxamide] | 100 to 1000
17 | NC(=O)c1cccc(-c2cncc(-c3nc4cccc(F)c4[nH]3)c2N2CC[C@H](N)C2)c1 [Compound 2-85, 3-{4-[(3S)-3-aminopyrrolidin-1-yl]-5-(4-fluoro-1H-1,3-benzodiazol-2-yl)pyridin-3-yl}benzamide] | < 10
18 | N#Cc1cc(F)cc(-c2cncc(-c3nc4cc(F)cc(F)c4[nH]3)c2N2CC[C@H](N)C2)c1 [Compound 2-87, 3-{4-[(3S)-3-aminopyrrolidin-1-yl]-5-(4,6-difluoro-1H-1,3-benzodiazol-2-yl)pyridin-3-yl}-5-fluorobenzonitrile] | < 10
19 | CNC(=O)c1cccc2nc(-c3cncc(-c4cccc(C#N)c4)c3N3CC[C@H](N)C3)[nH]c12 [Compound 2-90, 2-{4-[(3S)-3-aminopyrrolidin-1-yl]-5-(3-cyanophenyl)pyridin-3-yl}-N-methyl-1H-1,3-benzodiazole-4-carboxamide] | > 1000
20 | N#Cc1cccc(-c2cncc(-c3nc4c(CO)cccc4[nH]3)c2N2CC[C@H](N)C2)c1 [Compound 2-91, 3-{4-[(3S)-3-aminopyrrolidin-1-yl]-5-[7-(hydroxymethyl)-1H-1,3-benzodiazol-2-yl]pyridin-3-yl}benzonitrile] | 100 to 1000

Results, then the molecule that gave them:

Row | EC50 [nM] | SMILES
21 | 100 to 1000 | CN(C)C(=O)c1cccc(-c2cncc(-c3nc4cccc(F)c4[nH]3)c2N2CCC(C)(N)C2)c1 (stereo not drawn) [Compound 2-31, 3-[4-(3-amino-3-methylpyrrolidin-1-yl)-5-(4-fluoro-1H-1,3-benzodiazol-2-yl)pyridin-3-yl]-N,N-dimethylbenzamide]
22 | 100 to 1000 | N#Cc1cccc(-c2cncc(-c3nc4c(F)cccc4[nH]3)c2N2CC(N)C(C(F)(F)F)C2)c1 (stereo not drawn) [Compound 2-33, 3-{4-[3-amino-4-(trifluoromethyl)pyrrolidin-1-yl]-5-(4-fluoro-1H-1,3-benzodiazol-2-yl)pyridin-3-yl}benzonitrile]
23 | 100 to 1000 | N#Cc1cc(-c2cncc(-c3nc4cccc(F)c4[nH]3)c2N2CC[C@H](N)C2)ccc1O [Compound 2-36, 5-{4-[(3S)-3-aminopyrrolidin-1-yl]-5-(4-fluoro-1H-1,3-benzodiazol-2-yl)pyridin-3-yl}-2-hydroxybenzonitrile]
24 | < 10 | N#Cc1c(Cl)cccc1-c1cncc(-c2nc3cccc(F)c3[nH]2)c1N1CC[C@H](N)C1 [Compound 2-47, 2-{4-[(3S)-3-aminopyrrolidin-1-yl]-5-(4-fluoro-1H-1,3-benzodiazol-2-yl)pyridin-3-yl}-6-chlorobenzonitrile]
25 | 10 to 100 | N#Cc1cc(-c2cncc(-c3nc4c(F)ccc(F)c4[nH]3)c2N2CC[C@H](N)C2)ccc1C(F)(F)F [Compound 2-48, 5-{4-[(3S)-3-aminopyrrolidin-1-yl]-5-(4,7-difluoro-1H-1,3-benzodiazol-2-yl)pyridin-3-yl}-2-(trifluoromethyl)benzonitrile]
26 | 10 to 100 | Cc1ccnc2nc(-c3cncc(-c4ccc(F)c(C#N)c4)c3N3CC[C@H](N)C3)[nH]c12 [Compound 2-50, 5-{4-[(3S)-3-aminopyrrolidin-1-yl]-5-{7-methyl-1H-imidazo[4,5-b]pyridin-2-yl}pyridin-3-yl}-2-fluorobenzonitrile]
27 | 10 to 100 | CS(=O)(=O)c1cccc(-c2cncc(-c3nc4cccc(F)c4[nH]3)c2N2CC[C@H](N)C2)c1 [Compound 2-58, (3S)-1-[3-(4-fluoro-1H-1,3-benzodiazol-2-yl)-5-(3-methanesulfonylphenyl)pyridin-4-yl]pyrrolidin-3-amine]
28 | 10 to 100 | NC(=O)c1cc(-c2cncc(-c3nc4c(F)ccc(F)c4[nH]3)c2N2CC[C@H](N)C2)ccc1F [Compound 2-61, 5-{4-[(3S)-3-aminopyrrolidin-1-yl]-5-(4,7-difluoro-1H-1,3-benzodiazol-2-yl)pyridin-3-yl}-2-fluorobenzamide]
29 | 100 to 1000 | N#Cc1cc(F)cc(-c2cncc(-c3nc4cccc(F)c4[nH]3)c2N2C[C@@H](N)C[C@@H]2CO)c1 [Compound 2-66, 3-{4-[(2R,4S)-4-amino-2-(hydroxymethyl)pyrrolidin-1-yl]-5-(4-fluoro-1H-1,3-benzodiazol-2-yl)pyridin-3-yl}-5-fluorobenzonitrile]
30 | < 10 | Cn1c(-c2cncc(-c3cccc(C#N)c3)c2N2CC[C@H](N)C2)nc2c(F)cccc21 [Compound 2-74, 3-{4-[(3S)-3-aminopyrrolidin-1-yl]-5-(4-fluoro-1-methyl-1H-1,3-benzodiazol-2-yl)pyridin-3-yl}benzonitrile]
31 | 100 to 1000 | N#Cc1cc(F)cc(-c2cncc(-c3nc4cccc(F)c4[nH]3)c2N2CCC(N)(C(F)(F)F)C2)c1 (stereo not drawn) [Compound 2-78, 3-{4-[3-amino-3-(trifluoromethyl)pyrrolidin-1-yl]-5-(4-fluoro-1H-1,3-benzodiazol-2-yl)pyridin-3-yl}-5-fluorobenzonitrile]
32 | < 10 | C#Cc1cccc2[nH]c(-c3cncc(-c4cccc(C#N)c4)c3N3CC[C@H](N)C3)nc12 [Compound 2-84, 3-{4-[(3S)-3-Aminopyrrolidin-1-yl]-5-(4-ethynyl-1H-1,3-benzodiazol-2-yl)pyridin-3-yl}benzonitrile]
33 | > 1000 | N#Cc1cc(F)cc(-c2cncc(-c3nc4cccc(F)c4[nH]3)c2N2C[C@@H](N)C[C@H]2CO)c1 [Compound 2-88, 3-{4-[(2S,4S)-4-amino-2-(hydroxymethyl)pyrrolidin-1-yl]-5-(4-fluoro-1H-1,3-benzodiazol-2-yl)pyridin-3-yl}-5-fluorobenzonitrile]
